Measured values reported in ChEMBL document CHEMBL5500335, “Ligand-based design and synthesis of new trityl histamine and trityl cysteamine derivatives as SIRT2 inhibitors for cancer therapy” (Eur J Med Chem, 2024).
Activity calls are given as the source filed them. The calls are words filed in the database; no cut-off is given here.

How the values were obtained:
[1] = molecular target: T1, NAD-dependent protein deacetylase sirtuin-2 (Homo sapiens, UniProt Q8IXJ6); test: Inhibition of recombinant SIRT2 (unknown origin) deacetylase activity using Ac-RHKK(Ac)-MCA as substrate incubated for 60 mins in presence of NAD by fluorogenic assay
T1 sequence (Q8IXJ6 whole entry): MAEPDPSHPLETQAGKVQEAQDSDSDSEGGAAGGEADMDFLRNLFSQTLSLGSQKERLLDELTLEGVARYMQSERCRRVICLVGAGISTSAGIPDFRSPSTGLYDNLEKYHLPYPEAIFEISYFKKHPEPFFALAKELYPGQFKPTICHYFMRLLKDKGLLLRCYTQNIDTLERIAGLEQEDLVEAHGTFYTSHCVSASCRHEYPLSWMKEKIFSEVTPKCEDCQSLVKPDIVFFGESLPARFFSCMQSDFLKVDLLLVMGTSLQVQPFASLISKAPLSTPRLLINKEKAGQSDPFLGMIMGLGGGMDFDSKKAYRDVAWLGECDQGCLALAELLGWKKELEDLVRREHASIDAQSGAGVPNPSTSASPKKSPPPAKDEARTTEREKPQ

[2] = tested on: Panel NCI-60 (60 carcinoma cell lines); test: Growth inhibition of human Panel NCI-60 (60 carcinoma cell lines) cells incubated for 48 hrs by SRB assay; format: functional
[3] = tested on: Panel NCI-60 (60 carcinoma cell lines); test: Antiproliferative activity against human Panel NCI-60 (60 carcinoma cell lines) cells assessed as inhibition of cell growth incubated for 48 hrs by SRB assay; format: functional
[4] = tested on: Panel NCI-60 (60 carcinoma cell lines); test: Antiproliferative activity against human Panel NCI-60 (60 carcinoma cell lines) cells assessed as decrease in cell count incubated for 48 hrs by SRB assay; format: functional
[5] = molecular target: T2, NAD-dependent protein deacetylase sirtuin-2 (Homo sapiens) (UniProt Q8IXJ6); test: Inhibition of SIRT2 in human MCF7 cells assessed as induction of eIF5A acetylation incubated for 24 hrs by immunoblotting analysis; format: cell-based; settings: dose 2-10 µM
T2 sequence (whole entry): T1 sequence (Q8IXJ6 whole entry)

MCF7 [6] = test: Cell cycle arrest in human MCF7 cells assessed as G0-G1 phase cells incubated for 24 hrs by flow cytometric analysis (reference value: 55.8 %); format: functional
MCF7 [7] = test: Cell cycle arrest in human MCF7 cells assessed as accumulation of S phase cells incubated for 24 hrs by flow cytometric analysis (reference value: 26.6 %); format: functional
MCF7 [8] = test: Cell cycle arrest in human MCF7 cells assessed as accumulation of G2/M phase cells incubated for 24 hrs by flow cytometric analysis (reference value: 18 %); format: functional
[9] = Cytotoxicity against human PBMC cells assessed as cell viability at 10 uM incubated for 2 days by MTT assay relative to control; format: toxicity, cell-based; settings: time 2 day, read-out: Activity
[10] = Cytotoxicity against human PBMC cells assessed as cell viability at 1 uM incubated for 2 days by MTT assay relative to control; format: toxicity, cell-based; settings: time 2 day, read-out: Activity
[11] = Cytotoxicity against human PBMC cells assessed as cell viability incubated for 2 days by MTT assay; format: toxicity, cell-based
[12] = Selectivity ratio of IC50 for antiproliferative activity against spontaneous remission leukemia cell line (unknown origin) to IC50 for cytotoxicity against human PBMC cells; format: toxicity, cell-based; settings: read-out: Ratio IC50
[13] = Selectivity ratio of IC50 for antiproliferative activity against human MOLT-4 cells to IC50 for cytotoxicity against human PBMC cells; format: toxicity, cell-based; settings: MOLT-4 cells and PBMC cells, read-out: Ratio IC50
DNA = test: Induction of DNA (unknown origin) cleavage; format: nucleic-acid assay

Row | Compound | IC50 [1] [nM] | GI50 [2] [nM] | TGI [3] [nM] | LC50 (50% net cell kill) [4] [nM] | other results
1 | CN(C)c1ccnc(CNCCSC2(c3ccccc3)c3ccccc3CCc3ccccc32)c1 | 10600 | 1510 | ≥ 2930 |  | 
2 | CCN(CC)c1ccnc(CNCCSC(c2ccccc2)(c2ccccc2)c2ccc(OC)cc2)c1 | 14200 | 1300 | 3060 | ≥ 5590 | 
3 | COc1ccc(C2(SCCNCc3cc(N(C)C)ccn3)c3ccccc3C=Cc3ccccc32)cc1 | 5630 | 40 | ≥ 70 | ≥ 720 | inhibition [5]: Dose-Dependent Effect; Activity (MCF7 [6]): 26.7%; Activity (MCF7 [7]): 29.4%; Activity (MCF7 [8]): 46.5%; viability at 48 h, 10 µM [9]: 16.2%; viability at 48 h, 1 µM [10]: 84.9%; IC50 at 2 days [11]: > 1000 nM; selectivity ratio [12]: 25; selectivity ratio [13]: 2.2; Activity (DNA): inactive
4 | Cc1ccc(C(SCCNCc2cc(N(C)C)ccn2)(c2ccccc2)c2ccccc2)cc1 | 9910 | 370 | 1570 | ≥ 4650 | 
5 | CN(C)c1ccnc(CNCCSC2(c3ccc(C(F)(F)F)cc3)c3ccccc3C=Cc3ccccc32)c1 | > 50000 | 610 | 4390 | ≥ 10000 | 
6 | CCN(CC)c1ccnc(CNC(Cc2cn(C(c3ccccc3)(c3ccccc3)c3ccccc3)cn2)C(=O)OC)c1 (centres undefined) | 7610 |  |  |  | 
7 | CCN(CC)c1ccnc(CNCCc2cn(C(c3ccccc3)(c3ccccc3)c3ccccc3)cn2)c1 | 15400 | 1030 | ≥ 3200 |  | 
8 | CN(C)c1ccnc(CNCCCSC(c2ccccc2)(c2ccccc2)c2ccccc2)c1 | 26100 | 1550 | 3190 |  | 
9 | CN(C)c1ccnc(CNCCSC2(c3ccc(C(F)(F)F)cc3)c3ccccc3CCc3ccccc32)c1 | 49600 | 180 | 370 | ≥ 4770 | 
10 | COc1ccc(C(SCCNCc2cc(N(C)C)ccn2)(c2ccccc2)c2ccccc2)cc1 | 12400 | 210 | ≥ 480 | ≥ 1820 | 
11 | CN(C)c1ccnc(CNCCSC2c3ccccc3C=Cc3ccccc32)c1 | > 50000 |  |  |  | 
12 | CN(C)c1ccnc(CNCCc2cn(C(c3ccccc3)(c3ccccc3)c3ccccc3)cn2)c1 | 8620 | 260 | 1190 |  | 
13 | CN(C)c1ccnc(CNCCSC2(c3ccccc3)c3ccccc3C=Cc3ccccc32)c1 | 12000 | 220 | ≥ 500 | ≥ 2170 | 
14 | CCN(CC)c1ccnc(CNCCSC(c2ccccc2)(c2ccccc2)c2ccc(C)cc2)c1 | 27300 | 1380 | 2850 | ≥ 5590 | 
15 | COc1ccc(C2(SCCNCc3cc(N(C)C)ccn3)c3ccccc3CCc3ccccc32)cc1 | 8630 | 190 | 440 |  | 
